Laboratory results as given in PMC12040169 (PLOS Biology, 2025).

assay: in vitro; details: human, hela cells, % viability

| SMILES | viability at 28.5 h, 10 µM [%] |
| --- | --- |
| Cc1cc(NS(=O)(=O)c2ccc(F)cc2)n(C)n1 [CBK051021] | 108 |
| COc1ccc(-c2c[nH]c([C@@H]3COCCN3Cc3ccccc3O)n2)cc1 [CBK289296] | 85.1 |
| Cc1ccc2c(CC(=O)N(C)CCc3cn[nH]c3)coc2c1 [CBK283239] | 90.8 |
| Cc1cccc(-c2nc(C(N)=O)c3[nH]c(=O)n(-c4ccc(F)cc4)c3n2)c1 [CBK287632] | 111 |
| CNC(=O)C1/C(=N\O)c2ccccc2N1C(C)=O (centres unmarked) [CBK006569] | 114 |
| COc1ccc(N2CCN(C(=O)CCC(=O)c3cccs3)CC2)cc1 [CBK091413] | 94.3 |
| COc1ccc(C(=O)c2ccc(N3CCN(C4CC(=O)NC4=O)CC3)cc2)cc1F (centres unmarked) [CBK268909] | 94.2 |
| O=C(O)/C=C/c1cccc(-c2cnc3[nH]c(=O)n(C4CC4)c3n2)c1 [CBK065091] | 93.5 |
| c1ccc(CNc2cccc(N3CCNCC3)n2)cc1 [CBK003176T] | 92 |
| CCn1cc(C(=O)O)c(=O)c2cc(F)c(N3CCN(C(=S)NC(=O)c4c(-c5ccccc5)noc4C)CC3)cc21 [CBK267490] | 86.8 |
| CC(NS(=O)(=O)c1ccc(F)cc1)C(=O)Nc1ccc(C(N)=O)cc1 (centres unmarked) [CBK267658] | 104 |
| Cc1[nH]c2c(C(=O)NCCCC3CCOC3)cccc2c1C (centres unmarked) [CBK282551] | 84.1 |
| Cc1nc(C2CCN(C(=O)c3ccccn3)CC2)c2sccn12 [CBK282238] | 91.6 |
| O=S(=O)(Nc1nnn[nH]1)c1cccc2nsnc12 [CBK062379] | 99 |
| O=C1CN(C(=O)Cn2c(-c3cccs3)cc3cccnc32)CCN1 [CBK282543] | 100 |
| COC(=O)CCN(Cc1nnc(C2CC2)o1)C(C)C [CBK304470] | 84.6 |
| CC1=NN(c2nc(-c3cccc([N+](=O)[O-])c3)cs2)C(=O)C1/N=N/c1ccc(C)c(Br)c1 (centres unmarked) [CBK262430] | 104 |
| NC(=O)CSc1nc(NCc2ccccc2)nc(N2CCOCC2)n1 [CBK268923] | 93.3 |
| CN(C)CC(=O)Nc1ccc(Oc2ccc(Cl)cc2)cc1 [CBK269459C] | 94.9 |
| Cc1nn(CC(=O)N2CCCC2)c(=O)c2cc3ccsc3n12 [CBK284057] | 88.7 |
| Cc1cc2c(o1)c1cnn(CC(=O)N3CCCCC3)c(=O)c1n2C [CBK284217] | 90.5 |
| CCNC(=O)N[C@H]1CO[C@H]2[C@@H]1OC[C@@H]2n1nnnc1Oc1ccccc1 [CBK289484] | 102 |
| COc1cccc2cc([C@H]3CN(C(=O)C(C)(C)N)C[C@@H]3C(=O)N3CCC4(CC3)CN(S(C)(=O)=O)c3ccccc34)oc12 [CBK001347C] | 117 |

| SMILES | viability at 28.5 h, 10 µM [%] |
| --- | --- |
| COc1cc2c(cc1CNC1CCCc3c1cnn3C)OC(C)C2 (centres unmarked) [CBK304296C] | 94.6 |
| Cc1ccc(NC(=O)c2cnc3ccccc3n2)c(C)n1 [CBK200218] | 97.7 |
| CCOC(=O)c1c(NC(=O)CSc2nnc(C)s2)sc2c1CCC2 [CBK263183] | 91.2 |
| CC(=O)N1CCc2sccc2C1c1ccc(NC(=O)c2ccco2)cc1 (centres unmarked) [CBK286199] | 102 |
| CCCCc1c(O)c2ccccc2n(Cc2ccccc2)c1=O [CBK219416] | 106 |
| CC1CCN(CCCNS(=O)(=O)c2ccc(N3CCCC3=O)cc2)CC1 [CBK304220] | 95.9 |
| NC(=O)COc1ccc(CNC(=O)CN2CCCCCC2)cc1 [CBK306332] | 87.6 |
| Cn1ccnc1CNC(=O)N1CCCC(C(=O)c2cccc(Cl)c2)C1 (centres unmarked) [CBK307479] | 105 |
| Fc1cc(Br)ccc1-c1cn(-c2ccccc2)nn1 [CBK113148] | 80.7 |
| Cc1cccc(NC(=O)c2n[nH]c3ccccc23)c1 [CBK288231] | 84.6 |
| O=C(NC(c1ccc(Cl)cc1)c1ccsc1)C1CCN(S(=O)(=O)CC(F)(F)F)CC1 (centres unmarked) [CBK060088] | 89.1 |
| O=c1[nH]cnc2c1cnn2Cc1ccccc1Cl [CBK287999] | 97.1 |
| COc1ccccc1[C@@H]1C[C@H](OC(=O)c2ccc(F)cc2)C(=O)N1C [CBK283598] | 92 |
| O=c1[nH]c2ccccc2n1CCCN1CCN(c2nccnc2Oc2ccc(F)cc2)CC1 [CBK083027T] | 88.2 |
| CCOc1ccc(NC(=O)C2C3C=CC(O3)C2C(=O)O)cc1 (centres unmarked) [CBK261592] | 91.7 |
| Cc1ccc(NC(=O)COc2ccccc2)c(NC(=O)c2ccco2)c1 [CBK266809] | 95.6 |
| COc1ccc2cc(CNc3ccc(F)c([N+](=O)[O-])c3)c(Cl)nc2c1 [CBK295133] | 93.1 |
| COC(=O)c1c(NC(=O)CCCC(=O)O)sc(C)c1C [CBK265382] | 98.2 |
| O=C1C2(c3ccccc3)CN3CN(C2)CC1(c1ccccc1)C3 [CBK262245] | 93.5 |
| Cc1ccc(C)c(NC(=O)CCc2c(C)[nH]c3ncnn3c2=O)c1 [CBK304646] | 94.5 |
| COc1ccc2[nH]cc(C(C(=O)O)N3CCCCC3)c2c1 (centres unmarked) [CBK286676] | 85.3 |
| O=C(NCc1cccs1)C1(Cc2ccccc2-c2ccc(F)c(F)c2)CCOCC1 [CBK286417] | 93.2 |
| CCN1CCN(S(=O)(=O)c2cccc3c(S(=O)(=O)N4CCN(CC)CC4)cccc23)CC1 [CBK269611] | 90.4 |

| SMILES | viability at 28.5 h, 10 µM [%] |
| --- | --- |
| CC1Cc2ccccc2N1C(=O)Cn1c(CCCO)nc2ccccc21 (centres unmarked) [CBK297548] | 86.1 |
| Cc1ncc(S(=O)(=O)N2CCC(OCc3ccncc3)C2)s1 (centres unmarked) [CBK305483] | 99.5 |
| Nc1nc2n(c1C(=O)c1ccc(Cl)cc1)CCC2 [CBK288194] | 92.5 |
| Cc1ccc(C)c(Oc2coc3cc(OCC(=O)Nc4ccccc4C(C)C)ccc3c2=O)c1 [CBK265906] | 113 |
| Cc1nn2c(-c3ccc(NC(=O)c4cccs4)cc3)nnc2c2ccccc12 [CBK267134] | 89.6 |
| O=C(COc1ccc(F)cc1)NCc1ccc(-c2csnn2)cc1 [CBK149315] | 98.3 |
| COC(=O)c1cccc(CN2CCC3(CC2)OCCc2c3[nH]c3ccc(F)cc23)c1 [CBK040326] | 100 |
| COc1ccccc1C(=O)O/N=C1/CCCc2c1ccc(OC)c2[N+](=O)[O-] [CBK263555] | 102 |
| Sc1nnc(-c2cccc(Br)c2)o1 [CBK288432] | 101 |
| Cn1ccc(C(=O)NCc2cccnc2OCC(F)(F)F)cc1=O [CBK305574] | 99.9 |
| O=C(O)C(c1c[nH]c2ccc(OCc3ccccc3)cc12)N1CCCC1 (centres unmarked) [CBK286686] | 97.6 |
| Cc1ccc(S(=O)(=O)NCC(=O)Nc2ccc3cc(Br)cnc3n2)cc1 [CBK067429] | 95.6 |
| O=C(Nc1ccc(Cl)cc1Cl)NC(Cc1ccc(O)cc1)C(=O)O (centres unmarked) [CBK267386] | 90.9 |
| CC(C)(C)c1cc(CN2CCCCC2)c(C(=O)O)o1 [CBK266556C] | 97.8 |
| CCn1ncc(CN2C3CCC2CC(O)(c2ccc(F)cc2)C3)c1C (centres unmarked) [CBK282973] | 100 |
| N#CCSC1=CC(=O)CC(c2ccccc2)S1 (centres unmarked) [CBK008460] | 92.1 |
| CCn1nccc1C(=O)NC1=C(C#N)CCC1 [CBK265836] | 97.6 |
| O=C(Nc1cccc2ncccc12)c1cccc(Oc2ccccc2)c1 [CBK296716] | 91.7 |
| CC(=O)Nc1ccc(NC(=O)CSCc2ccc(Cl)cc2Cl)cc1 [CBK131696] | 96.4 |
| CCc1nn2c(O)cc(C)nc2c1-c1cccs1 [CBK283860] | 90.7 |
| CCCN(C)Cc1ccc(-c2cn(CC(=O)NCc3ccc4c(c3)OC(F)(F)O4)nn2)cc1 [CBK166361] | 101 |
| O=C(CN(c1cccc(Cl)c1)S(=O)(=O)c1ccccc1)Nc1cccc2cccnc12 [CBK263270] | 87.9 |
| Cn1c(Cc2csc(NC(=O)CNC(=O)Cc3ccccc3)n2)n[nH]c1=S [CBK296765] | 102 |

| SMILES | viability at 28.5 h, 10 µM [%] |
| --- | --- |
| COCCn1cc(C(=O)N2CCOC3CCCC32)c2ccccc21 (centres unmarked) [CBK305156] | 86.1 |
| O=C(O)C1CCCCC1C(=O)NCCc1ccccc1 (centres unmarked) [CBK261707] | 94 |
| O=C(c1ccc(F)cc1)N1CCC(c2cc3cccnc3[nH]2)CC1 [CBK285001] | 96.8 |
| CCCN(CCC)C(=O)Cn1cnc2ccc(Cl)cc2c1=O [CBK304651] | 78.2 |
| N/C(=N\OCC(=O)Nc1ccc(-n2cnnn2)cc1)c1nonc1N [CBK265331] | 104 |
| COc1ccc(C(=O)N2CCC(Cc3ccccc3)CC2)cc1 [CBK074337] | 95.8 |
| O=C(O)Cc1sc(-c2ccc3c(c2)OCO3)nc1-c1ccccc1 [CBK200114] | 87.3 |
| Cc1nc(SCC(=O)O)nc(O)c1Oc1ccccc1 [CBK263621] | 103 |
| O=C(NCCCn1ccnc1)c1cccnc1-c1nc2ccccc2s1 [CBK269939] | 90.5 |
| O=C(CCC1CCCCC1)Nc1c[nH]c(=O)[nH]c1=O [CBK287867] | 90.4 |
| Cn1c(=O)n(C)c2cc(S(=O)(=O)NCCC(=O)O)ccc21 [CBK267565] | 105 |
| Cc1ccn2cc(-c3cc4c(ccc5ccccc54)oc3=O)nc2c1 [CBK287313] | 100 |
| CCc1nc(C)c(C(C)N(C)CC(=O)NCc2ccco2)s1 (centres unmarked) [CBK305203] | 86.6 |
| CC(=O)c1ccc(-c2cc(N3CCN(CCN4CCCC4)CC3)ncn2)s1 [CBK091169] | 98.8 |
| CCOc1ccsc1C(=O)N1CCc2ccccc21 [CBK200410] | 100 |
| COc1ccc(C)cc1-n1ccc(C(=O)NCC2(C)CCCS2)n1 (centres unmarked) [CBK305355] | 83.3 |
| CN(CCC1CCN(c2ccncc2)CC1)C(=O)c1cc2sccc2[nH]1 [CBK305468] | 93.3 |
| O=C(CSc1nnc2scc(-c3ccccc3)n12)Nc1nsc(-c2ccc(Cl)cc2)n1 [CBK266576] | 95.4 |
| O=C(NCCCc1ccccn1)C1(c2ccccc2F)CC1 [CBK283155] | 93.6 |
| Cc1nnc(N2C(=O)c3oc4ccc(Cl)cc4c(=O)c3C2c2cccnc2)s1 (centres unmarked) [CBK267010] | 105 |
